Experiment [1] has as its system U937 human histiocytic leukemia cell line. As to the kind of experiment: Assay 1: inhibition of TSQ induced necroptosis, 96 well plate format. The experiment is classed as cell-based. The method, then: For in vitro analysis, the necroptosis inhibition may be determined by assays used to measure TSQ-induced necroptosis, as described in the biological tests defined herein.
(§1) Assay 1: Screening Compounds for Inhibition of TSQ Induced Necroptosis, 96 Well Plate Format.
(§2) Cell Line ID: […] human histiocytic leukemia cell line.
(§3) Cell Concentration (cells/well): 35,000 per well in 120 μL of media, counted and plated immediately prior to addition of inhibitor and death stimuli. Final well volume of 150 μL after addition of compounds and death stimuli
(§4) Cell growth medium: HTRPMI (WEHI Media kitchen, contains L-Glutamine and penicillin, streptomycin)—supplemented with 7.4% v/v FCS (Gibco, Precision Plus. Lot #1221437)
(§5) Incubation time (hours): 48 hours following addition of compounds and death stimuli
(§6) Compound Concentrations—Log Titrations:
(§7) DMSO final concentration (% v/v): 1.2% in 10 μM well to 0.2% in the control well.
Compounds that are in the Death Stimulation Cocktail and Their Final Concentrations:
hTNF-Fc (100 ng/ml)—produced by standard procedures as shown in Bossen et al., J Biol Chem, 2006, 281(20), 13964-13971.
Compound A (500 nM)—Smac mimetic, Tetralogic
Q-VD-OPh (10 μM)—MP Biomedicals
(§8) Cells treated with PI staining (1 μg/ml) and analysed by flow cytometry

Experiment [2] shares this test system. The experiment in a line: Off-target effect (cell based assay), reported with assay 1. The procedure: as §1, §2, §3, §4, §5, §6, §7, §8
[3] abbreviates: U-937, Table 1, assay 1, hTNF-Fc 100 ng/ml, Compound A 500 nM, Q-VD-OPh 10 μM, 48 hours, PI staining, flow cytometry, read-out: Inhibition of TSQ-induced necroptosis (cell based assay) IC50.
Where [4] appears, read: U-937, Table 1, assay 1, read-out: Off-target effect (cell based assay) IC50.
The mark [5] stands for this setting: U-937, comparison tables of the description, values as in Table 1 (assay 1), read-out: IC50 (nM) Necroptosis inhibition.
Setting [6] is: U-937, comparison tables of the description, values as in Table 1 (assay 1), read-out: IC50 (nM) Off-Target Effect.

Where only a bound is given, the exact number is not on record here.

For orientation: IC50 means the point on the concentration scale where inhibition reaches its midpoint. `COCCNC(=O)c1cc(Nc2nccc(N(C)c3ccc(NC(=O)Nc4ccc(OC(F)(F)F)cc4)cc3)n2)ccc1C` [Compound 9, N-(2-Methoxyethyl)-2-methyl-5-((4-(methyl(4-(3-(4-(trifluoromethoxy)phenyl)ureido)phenyl)amino)pyrimidin-2-yl)amino)benzamide]: the results for the IC50 in experiment [1] (setting [3]) and in experiment [2] (setting [4]) were 97.3 nM and > 10000 nM, respectively.

Consider `CN(c1ccc(NC(=O)Nc2ccc(OC(F)(F)F)cc2)cc1)c1ccnc(Nc2cccc(S(N)(=O)=O)c2)n1` [Compound 1 from AU 2014903569, reference compound], for which the results for the IC50 in experiment [1] (setting [5]) and in experiment [2] (setting [6]) were 67.9 nM and 3570 nM, respectively.

For `CN(c1ccc(NC(=O)Nc2ccc(OC(F)(F)F)cc2)cc1)c1ccnc(Nc2cccc(O)c2)n1` [Compound 19, 1-(4-((2-(3-hydroxyphenylamino)pyrimidin-4-yl)(methyl)amino)phenyl)-3-(4-(trifluoromethoxy)phenyl)urea], the IC50 in experiment [1] (setting [3]) was 1160 nM; in experiment [2] (setting [4]), > 10000 nM.

As for `CNC(=O)c1cc(Nc2nccc(N(C)c3ccc(NC(=O)Nc4ccc(OC(F)(F)F)cc4)cc3)n2)ccc1N1CCOCC1` [Compound 17, N-methyl-5-((4-(methyl(4-(3-(4-(trifluoromethoxy)phenyl)ureido)phenyl)amino)pyrimidin-2-yl)amino)-2-morpholinobenzamide], the IC50 in experiment [1] (setting [3]) was determined as 38.3 nM; in experiment [2] (setting [4]), 5670 nM.

Take `Cc1ccc(Nc2nccc(N(C)c3ccc(NC(=O)Nc4ccc(OC(F)(F)F)cc4)cc3)n2)cc1CN(C)C` [Compound 1, 1-(4-((2-((3-((dimethylamino)methyl)-4-methylphenyl)amino)pyrimidin-4-yl)(methyl)amino)phenyl)-3-(4-(trifluoromethoxy)phenyl)urea]: the IC50 in experiment [1] (setting [3]) came out at 53 nM; in experiment [2] (setting [4]), 4680 nM.

As for `Cc1ccc(Nc2ncc(F)c(N(C)c3ccc(NC(=O)Nc4cc(F)cc(C(F)(F)F)c4)cc3)n2)cc1N1CCCC1=O` [Compound 24, 1-(4-((5-fluoro-2-((4-methyl-3-(2-oxopyrrolidin-1-yl)phenyl)amino)pyrimidin-4-yl)(methyl)amino)phenyl)-3-(3-fluoro-5-(trifluoromethyl)phenyl)urea], the values for the IC50 in experiment [1] (setting [3]) and in experiment [2] (setting [4]) were 8.9 nM and 1240 nM, respectively.

For the compound `CNC(=O)c1cc(Nc2nccc(N(C)c3ccc(NC(=O)Nc4cccc(C#N)c4)cc3)n2)ccc1C` [Compound 33, 5-((4-((4-(3-(3-cyanophenyl)ureido)phenyl)(methyl)amino)pyrimidin-2-yl)amino)-N,2-dimethylbenzamide], the IC50 was 164 nM in experiment [1] (setting [3]) and 4130 nM in experiment [2] (setting [4]).

On to `CNC(=O)c1cc(Nc2nccc(N(C)c3ccc(NC(=O)Nc4ccc(OC(F)(F)F)cc4)cc3)n2)ccc1C` [Compound 3, N-2-Dimethyl-5-((4-(methyl(4-(3-(4-(trifluoromethoxy)phenyl)ureido)phenyl)amino)pyrimidin-2-yl)amino)benzamide], for which the IC50 in experiment [1] (setting [3]) was 93.1 nM; in experiment [1] (setting [5]), 93.1 nM; in experiment [2] (setting [4]) it was > 10000 nM; in experiment [2] (setting [6]), > 10000 nM.

As to `CN(c1ccc(NC(=O)Nc2ccc(OC(F)(F)F)cc2)cc1)c1nc(Nc2cccc(S(N)(=O)=O)c2)ncc1F` [Compound 5, 3-((5-Fluoro-4-(methyl(4-(3-(4-(trifluoromethoxy)phenyl)ureido)phenyl)amino)pyrimidin-2-yl)amino) benzenesulfonamide], the IC50 in experiment [1] (setting [3]) turned out to be 30 nM; in experiment [2] (setting [4]), 3110 nM.

Regarding `Cc1ccc(Nc2nccc(N(C)c3ccc(NC(=O)Nc4cc(F)cc(C(F)(F)F)c4)cc3)n2)cc1C(=O)N1CCOCC1` [Compound 25, 1-(3-fluoro-5-(trifluoromethyl)phenyl)-3-(4-(methyl(2-((4-methyl-3-(morpholine-4-carbonyl)phenyl)amino)pyrimidin-4-yl)amino)phenyl)urea], the figures for the IC50 in experiment [1] (setting [3]) and in experiment [2] (setting [4]) were 9.2 nM and 2280 nM, respectively.

As for `COc1cccc(Nc2nccc(N(C)c3ccc(NC(=O)Nc4ccc(OC(F)(F)F)cc4)cc3)n2)c1` [Compound 20, 1-(4-((2-(3-methoxyphenylamino)pyrimidin-4-yl)(methyl)amino)phenyl)-3-(4-(trifluoromethoxy)phenyl)urea], the values for the IC50 in experiment [1] (setting [3]) and in experiment [2] (setting [4]) were 504 nM and > 10000 nM, respectively.

As for `CNC(=O)c1cc(Nc2nccc(N(C)c3ccc(NC(=O)Nc4cc(F)cc(C(F)(F)F)c4)cc3)n2)ccc1N1CCOCC1` [Compound 27, 5-((4-((4-(3-(3-fluoro-5-(trifluoromethyl)phenyl)ureido)phenyl)(methyl)amino)pyrimidin-2-yl)amino)-N-methyl-2-morpholinobenzamide], the IC50 in experiment [1] (setting [3]) came to 325 nM; in experiment [2] (setting [4]) it was 2700 nM.

Regarding `CNC(=O)c1cc(Nc2ncc(F)c(N(C)c3ccc(NC(=O)Nc4ccc(OC(F)(F)F)cc4)cc3)n2)ccc1C` [Compound 12, 5-((5-Fluoro-4-(methyl(4-(3-(4-(trifluoromethoxy)phenyl)ureido)phenyl)amino)pyrimidin-2-yl)amino)-N,2-dimethylbenzamide], the IC50 in experiment [1] (setting [3]) was 10.1 nM; in experiment [1] (setting [5]), 10.1 nM; in experiment [2] (setting [4]), > 10000 nM; in experiment [2] (setting [6]), > 10000 nM.

For the compound `Cc1ccc(Nc2nccc(N(C)c3ccc(NC(=O)Nc4ccc(OC(F)(F)F)cc4)cc3)n2)cc1CN1CCN(C)CC1` [Compound 23, 1-(4-(methyl(2-((4-methyl-3-((4-methylpiperazin-1-yl)methyl)phenyl)amino)pyrimidin-4-yl)amino)phenyl)-3-(4-(trifluoromethoxy)phenyl)urea], the IC50 in experiment [1] (setting [3]) was found to be 202 nM; in experiment [2] (setting [4]), 6380 nM.

For the compound `CN(c1ccc(NC(=O)Nc2ccc(OC(F)(F)F)cc2)cc1)c1ccnc(Nc2cccc(C#N)c2)n1` [Compound 21, 1-(4-((2-(3-cyanophenylamino)pyrimidin-4-yl)(methyl)amino)phenyl)-3-(4-(trifluoromethoxy)phenyl)urea], the IC50 is 476 nM in experiment [1] (setting [3]) and > 10000 nM in experiment [2] (setting [4]).

Turning to `CN(c1ccc(NC(=O)Nc2ccc(OC(F)(F)F)cc2)cc1)c1ccnc(Nc2cccc(-c3nnn(C)n3)c2)n1` [Compound 11, 1-(4-(Methyl(2-((3-(2-methyl-2H-tetrazol-5-yl)phenyl)amino)pyrimidin-4-yl)amino)phenyl)-3-(4-(trifluoromethoxy)phenyl)urea], the IC50 came to 7.5 nM in experiment [1] (setting [3]) and 1350 nM in experiment [2] (setting [4]).

On to `Cc1ccc(Nc2nccc(N(C)c3ccc(NC(=O)Nc4ccc(OC(F)(F)F)cc4)cc3)n2)cc1N1CCCC1=O` [Compound 7], for which the IC50 in experiment [1] (setting [3]) was 51.8 nM; in experiment [2] (setting [4]), > 10000 nM.

On to `CNC(=O)c1cc(Nc2nccc(N(C)c3ccc(NC(=O)Nc4cc(F)cc(C(F)(F)F)c4)cc3)n2)ccc1OC` [Compound 30, 5-((4-((4-(3-(3-fluoro-5-(trifluoromethyl)phenyl)ureido)phenyl)(methyl)amino)pyrimidin-2-yl)amino)-2-methoxy-N-methylbenzamide], for which the IC50 in experiment [1] (setting [3]) is 58 nM; in experiment [2] (setting [4]), 6680 nM.

As to `CN(c1ccc(NC(=O)Nc2ccc(OC(F)(F)F)cc2)cc1)c1ccnc(Nc2cccc(N)c2)n1` [Compound 22, 1-(4-((2-(3-aminophenylamino)pyrimidin-4-yl)(methyl)amino)phenyl)-3-(4-(trifluoromethoxy)phenyl)urea], the IC50 was 427 nM in experiment [1] (setting [3]) and > 10000 nM in experiment [2] (setting [4]).

Turning to `Cc1ccc(Nc2nccc(N(C)c3ccc(NC(=O)Nc4ccc(OC(F)(F)F)cc4)cc3)n2)cc1S(N)(=O)=O` [Compound 21 from AU 2014903569, reference compound], the IC50 in experiment [1] (setting [5]) turned out to be 72.7 nM; in experiment [2] (setting [6]), 3600 nM.

As for `CNC(=O)c1cc(Nc2nccc(N(C)c3ccc(NC(=O)Nc4ccc(Cl)c(C(F)(F)F)c4)cc3)n2)ccc1C` [Compound 14, 5-((4-((4-(3-(4-Chloro-3-(trifluoromethyl)phenyl)ureido)phenyl)(methyl)amino)pyrimidin-2-yl)amino)-N,2-dimethylbenzamide], the 50% inhibitory concentration (IC50) was found to be 8.9 nM in experiment [1] (setting [3]) and 1630 nM in experiment [2] (setting [4]).

For `CN(c1ccc(NC(=O)Nc2cc(C(F)(F)F)ccc2F)cc1)c1ccnc(Nc2cccc(S(N)(=O)=O)c2)n1` [Compound 3 from AU 2014903569, reference compound], the IC50 in experiment [2] (setting [6]) was found to be 791 nM.

Turning to `CC(=O)Nc1cc(Nc2nccc(N(C)c3ccc(NC(=O)Nc4ccc(OC(F)(F)F)cc4)cc3)n2)ccc1C` [Compound 28, N-(2-methyl-5-((4-(methyl(4-(3-(4-(trifluoromethoxy)phenyl)ureido)phenyl)amino)pyrimidin-2-yl)amino)phenyl)acetamide], the IC50 came to 93 nM in experiment [1] (setting [3]) and 980 nM in experiment [2] (setting [4]).

With `CNC(=O)c1cc(Nc2nccc(N(C)c3ccc(NC(=O)Nc4cc(F)cc(C(F)(F)F)c4)cc3)n2)ccc1OCCN1CCCC1` [Compound 32, 5-((4-((4-(3-(3-fluoro-5-(trifluoromethyl)phenyl)ureido)phenyl)(methyl)amino)pyrimidin-2-yl)amino)-N-methyl-2-(2-(pyrrolidin-1-yl)ethoxy)benzamide], the IC50 in experiment [1] (setting [3]) came out at 40 nM.

As for `CNC(=O)c1cc(Nc2nccc(N(C)c3ccc(NC(=O)Nc4cc(F)cc(C(F)(F)F)c4)cc3)n2)ccc1N1CCN(C)CC1` [Compound 31], in experiment [1] (setting [3]), the IC50 was 13 nM.
